Here are results for nine compounds from patent US8710097B2, “Flavonoid dimers and methods of making and using such” (The Hong Kong Polytechnic University, priority 2006, dated 2014).

Converted amounts (≈) assume the structure as drawn. Where two headings read alike, the source gives them in different places.

Assay [1] relates to LeMDR1 knockout (LeMDR1 −/−) L. enriettii. Kind of assay: Leishmania cell viability (MTS) assay. The format is cell-based, Leishmania enriettii. The following applies: LeMDR1 −/−. An excerpt:
(§1) Cell lines and Cell Culture.

For assay [2], the system named is SSG-resistant L. donovani Ld39 promastigotes. Kind of assay: microbe, parasite or virus in culture. The assay is classed as cell-based, Leishmania donovani. The following applies: for IC50: Leishmania donovani, 72 h, read-out: IC50(μM) of synthetic flavonoid, Ld39. The protocol:
(§2) Cell lines and Cell Culture. Promastigotes of Leishmania enriettii (LePentR50, Le wild type, LeMDR1 −/− and LeMDR1-overexpressed LeV160 mutants) and Leishmania donovani (LdAG83, Ld2001 and Ld39) were employed in this study. The former is a natural infective strain of guinea pig and the latter is a clinical strain, which may cause visceral leishmaniasis in human. Both strains were cultured in Schneider's Drosophila Medium (Invitrogen), pH 6.9 supplemented with 10% (v/v) heat inactivated fetal calf serum (Hyclone) with 4 mM glutamine (Sigma) and 25 μg/mL gentamicin solution (Invitrogen), at 27° C. for 4 days (Cloning and functional analysis of an extrachromosomally amplified multidrug resistance-like gene in Leishmania enriettii. Mol. Biochem. Parasitol 1993, 60, 195-208). […]
(§3) The viability of promastigotes was determined by the Cell Titer 96® Aqueous Assay (Promega) that employs a tetrazolium compound (MTS) and electron coupling reagent, phenazine methosulfate (PMS). Promastigotes were seeded into 96-well flat bottom microtiter plate at 1×10^5 cells per well in a final volume of 100 μL medium. To determine the cytotoxic effects of flavonoid dimers to the parasites, various concentrations of flavonoid dimers were added to the promastigotes. To determine the reversal effects of flavonoid dimers with different spacer lengths, various concentrations of antileishmanial drugs, one of pentamidine or SSG, vinblastine and puromycin was added to the wells with or without flavonoid dimers. The parasites were incubated at 27° C. for 72 hrs. Each concentration of antileishmanials with or without the flavonoid dimers was tested in triplicates in each experiment. A 2 mg/mL MTS and 0.92 mg/mL PMS were mixed at a ratio of 20:1 (MTS: PMS). After 72-hr incubation, 10 μL of MTS:PMS mixture was added into each well of microtiter plate. The plate was then incubated at 27° C. for 4 hrs for color development. After 4 hrs of incubation, the OD values were determined at 490 nm using automatic microtiter plate reader (Bio-Rad).

The subject of assay [3] is P388/ADR cells. Kind of assay: Doxorubicin accumulation. The assay is classed as cell-based, murine. The following applies: monomer 10b at double concentration of the dimers, FIG. 11A. The protocol:
For P388 (both parent and MDR subtype) cells, 1 ml (10^5 cells) confluent cells were aliquot into Eppendorf tube and pre-incubated with flavone dimers for 30 min at 37° C. Doxorubicin (final concentration of 10 μM) was then added and incubated for 2 h at 37° C. at a final concentration of 10 μM. The cell pellets were washed 3 times with cold PBS by using an Eppendorf micro-centrifuge and lysed with 0.3N HCL in 50% ethanol, and sonicated for 30s. After centrifugation at 10000 rpm/min for 3 min, the supernatant was saved. The fluorescence of doxorubicin was measured using a spectrofluorometer (λexcite=470 nm, λemit=585 nm).

The test system of assay [4] is MDA435/LCC6 MDR cells. As to the kind of experiment: cells. The following applies: for IC50: Homo sapiens; for RF (relative fold): LCC6 MDR, drug alone (reference). The protocol: (§4) MDA435/LCC6 and P388 (both parent and MDR subtype) were maintained in DMEM and RPMI 1640 culture medium supplemented with 10% FBS, respectively. RPMI 1640 media also contained 100 units/ml penicillin and 100 μg/ml streptomycin. Cells were cultured at 37° C. in a humidified atmosphere with 5% CO2. A solution of 0.05% trypsin-EDTA was used to detach the MDA435/LCC6 (both wild type and MDR subtype) cells.
(§5) Cell proliferation assay. MDA435/LCC6 and P388 (both parent and MDR subtype) cells were seeded at 2000 and 5000 cells per well, respectively, in 96-well plates. Varying concentrations of anticancer drugs (Doxorubicin, Daunorubicin, Vincristine, Vinblastine, taxol, Mitoxantrone) with or without the flavonoid dimers were added in a final volume of 200 μl and cells were grown for 4 and 3 days for MDA435/LCC6 and P388 (both parent and MDR subtype) cells, respectively. For MDA435/LCC6 (both parent and MDR subtype), the corresponding drugs were added after cell attachment (24 hr incubation). To measure cell proliferation, the cell Titer 960 Aqueous Assay (Promega) was used according to the manufacturer's instructions. Briefly, MTS (2 mg/ml) and PMS (0.92 mg/ml) were mixed in a ratio of 20:1. 30 μl MTS/PMS mixture was added into each well and incubated for 2 hours at 37° C. Optical absorbance at 490 nm was then recorded using an ELISA microtiter plate reader (Bio-Rad). Each experiment was done at least in triplicate and repeated twice. Cytotoxicity of the anticancer drugs was expressed as the fraction of the cells survived relative to the untreated DMSO (0.05%) solvent controls.
MDA435/LCC6 is an estrogen-independent human breast cancer cell line. Its MDR subtype (MDA435/LCC6 MDR) was generated by transducing a retroviral vector directing the constitutive expression of the human MDR1 cDNA, producing a cell line with a classical MDR1 resistance pattern (MDA435/LCC6 and MDA435/LCC6MDR1: ascites models of human breast cancer. Br J Cancer 1996, 73, 154-161). The ability of the apigenin dimers of this invention to reverse taxol resistance in MDA435/LCC6 MDR cells were tested. […] Apigenin monomers 10a and 10b at 10 μM were used as the negative controls.

Assay [5] relates to wild type L. donovani LdAG83 promastigotes. As to the kind of experiment: Leishmania cell viability (MTS) assay. The format is cell-based, Leishmania donovani. The following applies: Leishmania donovani, 72 h, read-out: IC50(μM) of synthetic flavonoid, LdAG83. The protocol:
as §2, §3

In assay [6] the test system is pentamidine-resistant L. enriettii LePentR50 promastigotes. As to the kind of experiment: microbe, parasite or virus in culture. The following applies: Leishmania enriettii, 72 h, read-out: IC50(μM) of synthetic flavonoid, LePentR50, cytotoxicity of compound alone; 72 hrs. The protocol:
Cell lines and Cell Culture. Promastigotes of Leishmania enriettii (LePentR50, Le wild type, LeMDR1 −/− and LeMDR1-overexpressed LeV160 mutants) and Leishmania donovani (LdAG83, Ld2001 and Ld39) were employed in this study. The former is a natural infective strain of guinea pig and the latter is a clinical strain, which may cause visceral leishmaniasis in human. Both strains were cultured in Schneider's Drosophila Medium (Invitrogen), pH 6.9 supplemented with 10% (v/v) heat inactivated fetal calf serum (Hyclone) with 4 mM glutamine (Sigma) and 25 μg/mL gentamicin solution (Invitrogen), at 27° C. for 4 days (Cloning and functional analysis of an extrachromosomally amplified multidrug resistance-like gene in Leishmania enriettii. Mol. Biochem. Parasitol 1993, 60, 195-208).
Promastigotes of LeV160 were culture in the presence of 160 μg/mL vinblastine. No pentamidine and vinblastine (Sigma) was added to the Le wild type and LeMDR1 −/− mutant.
as §3

Assay [7] relates to MDA435/LCC6 cells. Kind of assay: Cell proliferation (MTS) assay, parental sensitive cells. The assay is classed as cell-based. The following applies: Homo sapiens, read-out: IC50 (nM) of anticancer drug alone. The text has this: (§6) Cell proliferation assay.
Assay [8] concerns P388/ADR cells. Kind of assay: cells. The conditions noted are these: P388/ADR; for IC50: Mus musculus; for RF (relative fold): drug alone (reference). The protocol: as §4, §5
Assay [9] deals with P388 cells. As to the kind of experiment: Cell proliferation (MTS) assay, parental sensitive cells. The assay is classed as cell-based, murine. The conditions noted are these: Mus musculus.
From the text: as §6

Assay [10] deals with LeMDR1 overexpressed L. enriettii (LeV160). Kind of assay: Leishmania cell viability (MTS) assay. The format is cell-based, Leishmania enriettii. The following applies: Leishmania enriettii.
From the text: as §1

[11] abbreviates: MDA435/LCC6 MDR, 5 μM dimer, FIG. 5.
[12] abbreviates: read-out: IC50 (nM) of anticancer drug alone.
The mark [13] stands for this setting: read-out: IC50 of anticancer drug alone.
Setting [14] is: 96 h, read-out: IC50 (nM) of anticancer drug alone, LCC6 MDR, drug alone, no modulator.
[15] abbreviates: P388, drug alone, read-out: IC50 (nM) of anticancer drug alone.

In the case of `O=c1cc(-c2ccc(OCCOCCOc3ccc(-c4cc(=O)c5c(O)cc(O)cc5o4)cc3)cc2)oc2cc(O)cc(O)c12` [Compound 9b, 1,7-Bis[4′-((5,7-dihydroxy)-4H-chromen-4-on-2-yl)phenyl]-1,4,7-trioxaheptane], in [1], the pentamidine sensitization is on record as 2.0 fold. Moreover, in assay [2] (Ld39, dimers at 6 μM, FIG. 14B), the “SSG resistance modulating activity” value is on record as “did not show substantial SSG resistance modulating activity”. Moreover, the IC50 in assay [2], in [5] and in assay [6] was above 200 µM each time. In addition, the “activity on doxorubicin accumulation” value in [3] is “comparable activity to 9d”. Further, in assay [4] (setting [11]), the “IC60 of doxorubicin with modulator” value was 1.3 µM. Further, in [4] (setting [11]), the “reduction of IC60 of doxorubicin, RF” value is recorded as around 3.1 RF.
`O=c1cc(-c2ccc(OCCOCCOCCOCCOCCOCCOCCOCCOc3ccc(-c4cc(=O)c5c(O)cc(O)cc5o4)cc3)cc2)oc2cc(O)cc(O)c12` [Compound 9h, 1,25-Bis[4′-((5,7-dihydroxy)-4H-chromen-4-on-2-yl)phenyl]-1,4,7,10,13,16,19,22,25-nonaoxapentacosane]: the pentamidine sensitization in [1] was found to be 2.3 fold. The results for the IC50 in assay [2] and in assay [5] were 14 ± 0.1 µM and 12 ± 0.2 µM, respectively. In assay [4] (MDA435/LCC6 MDR, dimers), the doxorubicin sensitization entry is recorded as “very little or no doxorubicin sensitization”. Further, in assay [4] (MDA435/LCC6 MDR, dimers at 5 μM), the “reversing effect on taxol resistance” value is given as “little or no reversing effect”.
On to `COc1cccc2c1C(=O)c1c(O)c3c(c(O)c1C2=O)C[C@@](O)(C(C)=O)C[C@@H]3O[C@H]1C[C@H](N)[C@H](O)[C@H](C)O1` [Daunorubicin], for which the IC50 in assay [7] was determined as 79 nM; in assay [8] (setting [12]) it was 2110 nM; in [8] (setting [13]) it was 2100 nM; in assay [9] (P388, read-out: IC50 (nM) of anticancer drug alone), 25 nM; in assay [4] (setting [14]), 977 nM. The “RF (relative fold)” value in assay [8] and in assay [4] was 1 throughout.
Regarding `COc1cccc2c1C(=O)c1c(O)c3c(c(O)c1C2=O)C[C@@](O)(C(=O)CO)C[C@@H]3O[C@H]1C[C@H](N)[C@H](O)[C@H](C)O1` [Doxorubicin], the IC50 in [7] (LCC6, drug alone) was determined as 300 nM; in assay [8] (setting [12]), 1740 nM; in assay [8] (setting [13]), 1500 nM; in assay [9] (setting [15]), 22 nM; in [4] (setting [14]), 4690 nM. The “RF (relative fold)” value in [8] and in assay [4] was 1 throughout. Also, in assay [4] (MDA435/LCC6 MDR, no modulator, FIG. 5), the “IC60 of doxorubicin alone” value stood at 4.7 µM.
`O=C1c2c(O)ccc(O)c2C(=O)c2c(NCCNCCO)ccc(NCCNCCO)c21` [Mitoxantrone]: the IC50 in assay [7] (LCC6, drug alone) was 0.35 nM; in assay [8] (setting [12]) it was 395 nM; in assay [9] (setting [15]), 4.3 nM; in assay [4] (setting [14]), 1440 nM. Moreover, the “RF (relative fold)” value in assay [8] and in [4] was 1 each time.
For the compound `CC(=O)O[C@H]1C(=O)[C@@]2(C)[C@H]([C@H](OC(=O)c3ccccc3)[C@]3(O)C[C@H](OC(=O)[C@H](O)[C@@H](NC(=O)c4ccccc4)c4ccccc4)C(C)=C1C3(C)C)[C@]1(OC(C)=O)CO[C@@H]1C[C@@H]2O` [Taxol, paclitaxel], the IC50 turned out to be 2.9 nM in assay [7] (LCC6, drug alone); 1640 nM in assay [8] (setting [12]); 22 nM in [9] (setting [15]); 115 nM in [4] (setting [14]); 128 nM in assay [4] (read-out: Mean IC50 of taxol (nM), LCC6MDR, no analog added (control)). Moreover, the “RF (relative fold)” value in assay [8] and in [4] was 1 throughout.
Consider `CC[C@]1(O)C[C@@H]2CN(CCc3c([nH]c4ccccc34)[C@@](C(=O)OC)(c3cc4c(cc3OC)N(C)[C@H]3[C@@](O)(C(=O)OC)[C@H](OC(C)=O)[C@]5(CC)C=CCN6CC[C@]43[C@@H]65)C2)C1` [Vinblastine], for which the IC50 in assay [7] (LCC6, drug alone) came out at 0.34 nM; in [10] (read-out: IC50 of vinblastine (μg/ml), no modulator), 167 ± 3.6 µg/mL (≈ 206 µM); in assay [8] (72 h, read-out: IC50 (nM) of anticancer drug alone), 95 nM; in assay [9] (setting [15]), 4.1 nM; in assay [4] (setting [14]) it was 4.8 nM. The “RF (relative fold)” value in assay [8] and in assay [4] was 1 throughout.
`CC[C@]1(O)C[C@H]2CN(CCc3c([nH]c4ccccc34)[C@@](C(=O)OC)(c3cc4c(cc3OC)N(C=O)[C@H]3[C@@](O)(C(=O)OC)[C@H](OC(C)=O)[C@]5(CC)C=CCN6CC[C@]43[C@@H]65)C2)C1` [Vincristine]: the IC50 was found to be 0.29 nM in [7] (LCC6, drug alone); 299 nM in assay [8] (setting [12]); 2.2 nM in [9] (setting [15]); 26 nM in [4] (setting [14]). The “RF (relative fold)” value in [8] and in assay [4] was 1 in each case.
Consider `COc1ccc(C[C@H](N)C(=O)N[C@H]2[C@@H](O)[C@H](n3cnc4c(N(C)C)ncnc43)O[C@@H]2CO)cc1` [puromycin], for which the IC50 in assay [10] (read-out: IC50 of puromycin (μg/ml), no modulator) was determined as 16 ± 1 µg/mL (≈ 33.9 µM).
